“And” between values parts separate entries of the source, which are not always exact repeats. Identical values can stand only once. Like-named read-outs stand apart in the source and are kept apart here.
Assays:
Type in all cases: cell-based, Plasmodium falciparum
NF54^WT parasites = assay: microbe, parasite or virus in culture
Method: (§1) For the NF54-based lines and Dd2-B2-PfATP4^G358S and its parent, assays were initiated with cultures containing predominantly ring-stage parasites with a parasitaemia of 0.3% and a haematocrit of 1%. All assays using NF54 were performed in culture media containing 10% O + human serum. The duration of the assays was 72 h and the concentration of DMSO was <0.5% (v/v). Serial dilutions of the test compounds were performed using a Tecan D300e digital dispenser, with parasite cultures added manually. Parasite survival was assessed by flow cytometry on an Intellicyt iQue3 (Essen Bioscience), with 1× SYBR Green I (Invitrogen) and 200 nM MitoTracker Deep Red FM (Invitrogen) used to stain the nucleus and the mitochondria in live parasites, respectively. The gating strategy used to quantify parasite survival, performed using FlowJo version 10 (FlowJo LLC.), is illustrated in Supplementary Fig. 9. IC50 and IC90 values were calculated by linear interpolation of the dose-response data.

NF54^CTL parasites = assay: P. falciparum proliferation assay (72 h, flow cytometry, SYBR Green I/MitoTracker); details: for IC50: NF54CTL parasites
Method: as §1

NF54^G358S-1 parasites = assay: as above
Method: as §1

NF54^G358S-2 parasites = assay: as above; details: for IC50 / IC90: NF54G358S-2 parasites
Method: as §1

[1] = system: parasite lines with a G358S mutation in PfATP4; assay: P. falciparum proliferation assays, statements on all lines with the G358S mutation; details: G358S lines vs PfATP4 wild-type controls
Method: as §1, with “Two types of parasite proliferation assays were employed in this study, with both yielding highly consistent results. For” for “For”
For experiments with all other parasites, the effects of compounds of interest on parasite proliferation was measured in 96-well plates containing serial dilutions of the compounds in culture medium, with a fluorescent DNA-intercalating dye used to detect surviving parasites. The assays were initiated with erythrocytes infected with predominantly ring-stage parasites, and the starting parasitaemia and haematocrit were both 1%. […] Fluorescence was measured using a FLUOstar OPTIMA plate reader (BMG LABTECH), with OPTIMA version 2.20R2 and MARS Data Analysis Software version 3.01 R2 (BMG LABTECH).

Dd2 parasites = assay: P. falciparum proliferation assay (72 h, fluorescent DNA-intercalating dye); details: read-out: IC50 values; Dd2 parasites; individual experiments
Method: (§2) For experiments with all other parasites, the effects of compounds of interest on parasite proliferation was measured in 96-well plates containing serial dilutions of the compounds in culture medium, with a fluorescent DNA-intercalating dye used to detect surviving parasites. The assays were initiated with erythrocytes infected with predominantly ring-stage parasites, and the starting parasitaemia and haematocrit were both 1%.

[2] = system: Dd2-PfATP4^T418N,P990R parasites; assay: as above; details: Dd2-PfATP4T418N,P990R parasites; individual experiments; read-out: IC50 values
Method: as §2

Dd2-Polδ parasites = assay: as above
Method: as §2

[3] = system: Dd2-Polδ-PfATP4^G358S parasites; assay: as above; details: for IC50: Dd2-Polδ-PfATP4G358S parasites
Method: as §2

[4] = system: HCR1 parasites (highly cipargamin-resistant clone 1); assay: as above; details: Plasmodium falciparum, HCR1 parasites; individual experiments; read-out: IC50 values
Method: as §2

[5] = system: HCR2 parasites (highly cipargamin-resistant clone 2); assay: as above; details: HCR2 parasites, individual experiments, read-out: IC50 values
Method: as §2

[6] = individual experiments, read-out: IC50 values
[7] = mean of the experiments, read-out: IC50 values, MEAN
[8] = Dd2-Polδ parasites, individual experiments, read-out: IC50 values

Question: What does the source list for `CCNCc1cc(Nc2ccnc3cc(Cl)ccc23)ccc1O` [Monodesethyl‐amodiaquine]?
Answer: IC50 (NF54^WT parasites; NF54WT parasites, individual experiments, read-out: IC50 values): 10.5 nM; IC90 (NF54^WT parasites; NF54WT parasites, individual experiments, read-out: IC90 values): 7.38 nM and 7.32 nM and 7.45 nM and 14.6 nM; IC50 (NF54^WT parasites; NF54WT parasites, mean of the experiments, read-out: IC50 values, MEAN): 6.9 nM; IC90 (NF54^WT parasites; NF54WT parasites, mean of the experiments, read-out: IC90 values, MEAN): 9.2 nM; FC (IC50) (NF54^WT parasites; NF54WT, reference line): 1.0 fold; FC (IC90) (NF54^WT parasites; NF54WT, reference line): 1.0 fold; FC (Mean IC90/IC50) (NF54^WT parasites; NF54WT, reference line): 1.0 fold; IC50 (NF54^WT parasites; read-out: IC50 values): 5.7 nM; FC (IC50) (NF54^CTL parasites; NF54CTL compared to NF54WT): 1.0 fold; FC (IC90) (NF54^CTL parasites; NF54CTL compared to NF54WT): 1.5 fold; FC (Mean IC90/IC50) (NF54^CTL parasites; NF54CTL compared to NF54WT): 1.5 fold; IC50 (NF54^CTL parasites; [6]): 6.5 nM and 6.8 nM and 7.4 nM and 7.2 nM; IC50 (NF54^CTL parasites; [7]): 7 nM; IC50 (NF54^G358S-1 parasites; NF54G358S-1, 10% human serum, read-out: IC50 ± SEM): 7.6 ± 0.8 nM; FC (IC50) (NF54^G358S-1 parasites; NF54G358S-1 compared to NF54WT): 1.1 fold; FC (IC90) (NF54^G358S-1 parasites; NF54G358S-1 compared to NF54WT): 1.4 fold; IC50 (NF54^G358S-1 parasites; NF54G358S-1 parasites, individual experiments, read-out: IC50 values): 5.6 nM and 7.6 nM and 8.1 nM and 9.2 nM; IC90 (NF54^G358S-1 parasites; NF54G358S-1 parasites, individual experiments, read-out: IC90 values): 7.37 nM and 14 nM (2×) and 14.3 nM; IC50 (NF54^G358S-1 parasites; NF54G358S-1 parasites, mean of the experiments, read-out: IC50 values, MEAN): 7.6 nM; IC90 (NF54^G358S-1 parasites; NF54G358S-1 parasites, mean of the experiments, read-out: IC90 values, MEAN): 12.4 nM; FC (IC50) (NF54^G358S-2 parasites; NF54G358S-2 compared to NF54WT): 1.0 fold; FC (IC90) (NF54^G358S-2 parasites; NF54G358S-2 compared to NF54WT): 1.3 fold; FC (Mean IC90/IC50) (NF54^G358S-2 parasites; NF54G358S-2 compared to NF54WT): 1.3 fold; IC50 (NF54^G358S-2 parasites; [6]): 5.9 nM and 7.4 nM and 7 nM; IC90 (NF54^G358S-2 parasites; individual experiments, read-out: IC90 values): 7.97 nM and 13.8 nM and 13.5 nM; IC50 (NF54^G358S-2 parasites; [7]): 6.8 nM; IC90 (NF54^G358S-2 parasites; mean of the experiments, read-out: IC90 values, MEAN): 12.2 nM; effect of the G358S mutation in PfATP4 on parasite susceptibility [1]: no effect

Question: What does the source list for `CCN(CC)CCCC(C)Nc1ccnc2cc(Cl)ccc12` (stereo not drawn) [Chloroquine]?
Answer: IC50 (Dd2 parasites): 92 nM and 187 nM; IC50 [2]: 165 nM; IC50 (Dd2-Polδ parasites; [8]): 172 nM and 316 nM; IC50 (Dd2-Polδ parasites; Plasmodium falciparum, DD2, Dd2-Polδ parasites, mean of the experiments, read-out: IC50 values, MEAN): 185 nM; IC50 (Dd2-Polδ parasites; Plasmodium falciparum, DD2, SET-2, read-out: Mean IC50 value ± SEM for growth inhibition, Dd2-Polδ, Supplementary Table 1, Set 2): 185 nM; IC50 [3, 6]: 161 nM and 262 nM and 227 nM; IC50 [4]: 92 nM; IC50 [5]: 229 nM; IC50 ([5]; Plasmodium falciparum): 159 nM

Question: `CCOC(=O)C1=CN(C)C=C(C(=O)OCC)C1c1cc(Br)c(OCC)c(OC)c1` [MMV006656] was tested. Which IC50 (Dd2-Polδ parasites; [8]) did it give?
Answer: Its IC50 is 435 nM and 243 nM and 394 nM and 305 nM.

Question: And the IC50 (Dd2-Polδ parasites; Dd2-Polδ parasites, mean of the experiments, read-out: IC50 values, MEAN)?
Answer: Its IC50 is 344 nM.

Question: What about the IC50 [3, 6] of the same compound?
Answer: The IC50 was 1560 nM and 1990 nM and 1300 nM and 2350 nM.

Question: And the IC50 [3, 7]?
Answer: Its IC50 is 1800 nM.

Question: And the “IC50 fold higher than that of Dd2-Polδ parent” value ([3]; Dd2-Polδ-PfATP4G358S vs Dd2-Polδ, mean ± SEM)?
Answer: Its value is 5.7 ± 1.3 fold.
